From patent US10259808B2 (Genentech, Inc., priority 2015, dated 2019)
Counter-ions that a name gives are not always drawn.

These compounds were tested against T1, RORc ligand binding domain (Homo sapiens, UniProt P51449) (assay: In vitro RORc ligand binding assay (25-[3H]hydroxycholesterol displacement)).
T1 sequence (P51449 269-508 limits assumed): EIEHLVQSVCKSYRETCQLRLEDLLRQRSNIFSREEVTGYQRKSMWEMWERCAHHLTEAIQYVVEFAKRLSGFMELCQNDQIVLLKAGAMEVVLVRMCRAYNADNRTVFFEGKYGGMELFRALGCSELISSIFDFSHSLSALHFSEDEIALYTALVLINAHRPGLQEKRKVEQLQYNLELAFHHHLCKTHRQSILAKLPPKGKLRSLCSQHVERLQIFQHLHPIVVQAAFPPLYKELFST

Compound | IC50 [nM]
C[C@H]1CC[C@H](c2ccccc2)S(=O)(=O)N1Cc1cc(F)c(C2(c3nnc(N)o3)CCOCC2)cc1F [Example 61, 5-[4-[2,5-difluoro-4-[[(3S,6R)-3-methyl-1,1-dioxo-6-phenyl-thiazinan-2-yl]methyl]phenyl]tetrahydropyran-4-yl]-1,3,4-oxadiazol-2-amine] | 19.2
C[C@H]1CC[C@H](c2ccccc2)S(=O)(=O)N1Cc1ccc(C2(NCc3cnc[nH]3)CCOCC2)cc1F [Example 62, 4-[3-fluoro-4-[[(3S,6R)-3-methyl-1,1-dioxo-6-phenyl-thiazinan-2-yl]methyl]phenyl]-N-(1H-imidazol-5-ylmethyl)tetrahydropyran-4-amine] | 20.5
C[C@H]1CC[C@H](c2ccccc2)S(=O)(=O)N1Cc1ccc(C2(NCc3ccc(=O)[nH]c3)CCOCC2)cc1F [Example 68, 5-[[[4-[3-fluoro-4-[[(3S,6R)-3-methyl-1,1-dioxo-6-phenyl-thiazinan-2-yl]methyl]phenyl]tetrahydropyran-4-yl]amino]methyl]-1H-pyridin-2-one] | 38.9
C[C@H]1CC[C@H](c2ccccc2)S(=O)(=O)N1Cc1ccc(C2(N3C=NC(=O)/C3=C\O)CCOCC2)cc1F [Example 69, (5E)-1-[4-[3-fluoro-4-[[(3S,6R)-3-methyl-1,1-dioxo-6-phenyl-thiazinan-2-yl]methyl]phenyl]tetrahydropyran-4-yl]-5-(hydroxymethylene)imidazol-4-one] | 83.3
C[C@H]1CC[C@H](c2ccccc2)S(=O)(=O)N1Cc1ccc(C2(n3cn[nH]c3=O)CCOCC2)cc1F [Example 70, 4-[4-[3-fluoro-4-[[(3S,6R)-3-methyl-1,1-dioxo-6-phenyl-thiazinan-2-yl]methyl]phenyl]tetrahydropyran-4-yl]-1H-1,2,4-triazol-5-one] | 113
C[C@H]1CC[C@H](c2ccccc2)S(=O)(=O)N1Cc1ccc(C2(NCc3cc[nH]c(=O)c3)CCOCC2)cc1F [Example 72, 4-[[[4-[3-fluoro-4-[[(3S,6R)-3-methyl-1,1-dioxo-6-phenyl-thiazinan-2-yl]methyl]phenyl]tetrahydropyran-4-yl]amino]methyl]-1H-pyridin-2-one] | 10.6
C[C@H]1CC[C@H](c2ccccc2)S(=O)(=O)N1Cc1cc(F)c(C2(c3nc(CO)co3)CCOCC2)cc1F [Example 74, [2-[4-[2,5-difluoro-4-[[(3S,6R)-3-methyl-1,1-dioxo-6-phenyl-thiazinan-2-yl]methyl]phenyl]tetrahydropyran-4-yl]oxazol-4-yl]methanol] | 12.8
C[C@H]1CC[C@H](c2ccccc2)S(=O)(=O)N1Cc1ccc(C2(NCc3ccc[nH]c3=O)CCOCC2)cc1F [Example 77, 3-[[[4-[3-fluoro-4-[[(3S,6R)-3-methyl-1,1-dioxo-6-phenyl-thiazinan-2-yl]methyl]phenyl]tetrahydropyran-4-yl]amino]methyl]-1H-pyridin-2-one] | 87.2
Cc1nc(CNC2(c3ccc(CN4[C@@H](C)CC[C@H](c5ccccc5)S4(=O)=O)c(F)c3)CCOCC2)co1 [Example 78, 4-[3-fluoro-4-[[(3S,6R)-3-methyl-1,1-dioxo-6-phenyl-thiazinan-2-yl]methyl]phenyl]-N-[(2-methyloxazol-4-yl)methyl]tetrahydropyran-4-amine; hydrochloride] | 30.2
C[C@H]1CC[C@H](c2ccccc2)S(=O)(=O)N1Cc1ccc(C2(N(C)Cc3nnc[nH]3)CCOCC2)cc1F [Example 79, 4-[3-fluoro-4-[[(3S,6R)-3-methyl-1,1-dioxo-6-phenyl-thiazinan-2-yl]methyl]phenyl]-N-methyl-N-(4H-1,2,4-triazol-3-ylmethyl)tetrahydropyran-4-amine] | 77.1

These reach a lower IC50. Values come first.

IC50 [nM] | Compound
4.2 | CCOC(=O)c1nnc(C2(c3cc(F)c(CN4[C@@H](C)CC[C@H](c5ccccc5)S4(=O)=O)cc3F)CCOCC2)o1 [Example 60, ethyl 5-[4-[2,5-difluoro-4-[[(3S,6R)-3-methyl-1,1-dioxo-6-phenyl-thiazinan-2-yl]methyl]phenyl]tetrahydropyran-4-yl]-1,3,4-oxadiazole-2-carboxylate]
6.7 | C[C@H]1CC[C@H](c2ccccc2)S(=O)(=O)N1Cc1ccc(C2(NCc3cc[nH]n3)CCOCC2)cc1F [Example 63, 4-[3-fluoro-4-[[(3S,6R)-3-methyl-1,1-dioxo-6-phenyl-thiazinan-2-yl]methyl]phenyl]-N-(1H-pyrazol-3-ylmethyl)tetrahydropyran-4-amine]
10.1 | C[C@H]1CC[C@H](c2ccccc2)S(=O)(=O)N1Cc1ccc(C2(NCc3ncc[nH]3)CCOCC2)cc1F [Example 64, 4-[3-fluoro-4-[[(3S,6R)-3-methyl-1,1-dioxo-6-phenyl-thiazinan-2-yl]methyl]phenyl]-N-(1H-imidazol-2-ylmethyl)tetrahydropyran-4-amine]
3.6 | C[C@H]1CC[C@H](c2ccccc2)S(=O)(=O)N1Cc1ccc(C2(NCc3cocn3)CCOCC2)cc1F [Example 65, 4-[3-fluoro-4-[[(3S,6R)-3-methyl-1,1-dioxo-6-phenyl-thiazinan-2-yl]methyl]phenyl]-N-(oxazol-4-ylmethyl)tetrahydropyran-4-amine]
6.6 | C[C@H]1CC[C@H](c2ccccc2)S(=O)(=O)N1Cc1ccc(C2(NCc3cnccn3)CCOCC2)cc1F [Example 66, 4-[3-fluoro-4-[[(3S,6R)-3-methyl-1,1-dioxo-6-phenyl-thiazinan-2-yl]methyl]phenyl]-N-(pyrazin-2-ylmethyl)tetrahydropyran-4-amine]
9.3 | C[C@H]1CC[C@H](c2ccccc2)S(=O)(=O)N1Cc1ccc(C2(NCc3ncccn3)CCOCC2)cc1F [Example 67, 4-[3-fluoro-4-[[(3S,6R)-3-methyl-1,1-dioxo-6-phenyl-thiazinan-2-yl]methyl]phenyl]-N-(pyrimidin-2-ylmethyl)tetrahydropyran-4-amine]
2.5 | C[C@H]1CC[C@H](c2ccccc2)S(=O)(=O)N1Cc1ccc(C2(NCc3ncco3)CCOCC2)cc1F [Example 71, 4-[3-fluoro-4-[[(3S,6R)-3-methyl-1,1-dioxo-6-phenyl-thiazinan-2-yl]methyl]phenyl]-N-(oxazol-2-ylmethyl)tetrahydropyran-4-amine]
2.9 | C[C@H]1CC[C@H](c2ccccc2)S(=O)(=O)N1Cc1cc(F)c(C2(NCc3ccn[nH]3)CCOCC2)cc1F [Example 73, 4-[2,5-difluoro-4-[[(3S,6R)-3-methyl-1,1-dioxo-6-phenyl-thiazinan-2-yl]methyl]phenyl]-N-(1H-pyrazol-5-ylmethyl)tetrahydropyran-4-amine]
6.4 | C[C@H]1CC[C@H](c2ccccc2)S(=O)(=O)N1Cc1cc(F)c(C2(NCc3cocn3)CCOCC2)cc1F [Example 75, 4-[2,5-difluoro-4-[[(3S,6R)-3-methyl-1,1-dioxo-6-phenyl-thiazinan-2-yl]methyl]phenyl]-N-(oxazol-4-ylmethyl)tetrahydropyran-4-amine]
4.6 | Cc1cc(CNC2(c3ccc(CN4[C@@H](C)CC[C@H](c5ccccc5)S4(=O)=O)c(F)c3)CCOCC2)no1 [Example 76, 4-[3-fluoro-4-[[(3S,6R)-3-methyl-1,1-dioxo-6-phenyl-thiazinan-2-yl]methyl]phenyl]-N-[(5-methylisoxazol-3-yl)methyl]tetrahydropyran-4-amine]
